Test results as given in the NIST ThermoML archive (doi:10.1021/je300945r).
± gives the expanded uncertainty stated by the source.

F/C=C/C(F)(F)F [trans-1,3,3,3-tetrafluoropropene]
Settings	mass density [kg/m3]
323.14 K, 8751 kPa, Liquid, Vibrating tube method	1126.4 ± 1.6
323.14 K, 9772 kPa, Liquid, Vibrating tube method	1131.9 ± 1.6
323.14 K, 12808 kPa, Liquid, Vibrating tube method	1147.2 ± 1.6
323.14 K, 13808 kPa, Liquid, Vibrating tube method	1151.8 ± 1.6
323.14 K, 14826 kPa, Liquid, Vibrating tube method	1156.4 ± 1.6
323.14 K, 15836 kPa, Liquid, Vibrating tube method	1160.8 ± 1.6
323.14 K, 16839 kPa, Liquid, Vibrating tube method	1165 ± 1.6
323.14 K, 17853 kPa, Liquid, Vibrating tube method	1169.1 ± 1.6
323.14 K, 18870 kPa, Liquid, Vibrating tube method	1173.1 ± 1.6
323.14 K, 19877 kPa, Liquid, Vibrating tube method	1177 ± 1.6
323.14 K, 20888 kPa, Liquid, Vibrating tube method	1180.8 ± 1.6
323.14 K, 25937 kPa, Liquid, Vibrating tube method	1198.3 ± 1.7
323.14 K, 26941 kPa, Liquid, Vibrating tube method	1201.5 ± 1.7
323.14 K, 29967 kPa, Liquid, Vibrating tube method	1210.9 ± 1.7
323.15 K, 10784 kPa, Liquid, Vibrating tube method	1137.3 ± 1.6
323.15 K, 11798 kPa, Liquid, Vibrating tube method	1142.3 ± 1.6
323.15 K, 21901 kPa, Liquid, Vibrating tube method	1184.5 ± 1.6
323.15 K, 22914 kPa, Liquid, Vibrating tube method	1188 ± 1.6
323.15 K, 23918 kPa, Liquid, Vibrating tube method	1191.5 ± 1.6
323.15 K, 24922 kPa, Liquid, Vibrating tube method	1194.9 ± 1.7
323.15 K, 27947 kPa, Liquid, Vibrating tube method	1204.7 ± 1.7
323.15 K, 28950 kPa, Liquid, Vibrating tube method	1207.8 ± 1.7
323.15 K, 30984 kPa, Liquid, Vibrating tube method	1213.9 ± 1.7
323.15 K, 31990 kPa, Liquid, Vibrating tube method	1216.9 ± 1.7
323.15 K, 33002 kPa, Liquid, Vibrating tube method	1219.7 ± 1.7
323.15 K, 34015 kPa, Liquid, Vibrating tube method	1222.6 ± 1.7
324.12 K, 770.9 kPa, Gas, isochoric method	38.462 ± 0.13
324.12 K, 771 kPa, Gas, isochoric method	38.462 ± 0.13
325.11 K, 605.5 kPa, Gas, isochoric method	28.571 ± 0.11
333.07 K, 79.2 kPa, Gas, isochoric method	3.311 ± 0.086
333.07 K, 288 kPa, Gas, isochoric method	12.346 ± 0.095
333.07 K, 488.2 kPa, Gas, isochoric method	21.739 ± 0.097
333.08 K, 180.4 kPa, Gas, isochoric method	7.634 ± 0.087
333.09 K, 428.5 kPa, Gas, isochoric method	19.231 ± 0.095
333.09 K, 624.8 kPa, Gas, isochoric method	28.571 ± 0.11
333.09 K, 685.9 kPa, Gas, isochoric method	32.258 ± 0.11
333.09 K, 801.3 kPa, Gas, isochoric method	38.462 ± 0.12
333.09 K, 801.4 kPa, Gas, isochoric method	38.462 ± 0.12
333.09 K, 875.5 kPa, Gas, isochoric method	43.478 ± 0.14
333.1 K, 875.5 kPa, Gas, isochoric method	43.478 ± 0.14
333.15 K, 10813 kPa, Liquid, Vibrating tube method	1108.1 ± 1.6
333.15 K, 15858 kPa, Liquid, Vibrating tube method	1134.8 ± 1.6
333.15 K, 17873 kPa, Liquid, Vibrating tube method	1144.2 ± 1.6
333.15 K, 18876 kPa, Liquid, Vibrating tube method	1148.5 ± 1.6
333.15 K, 19891 kPa, Liquid, Vibrating tube method	1152.9 ± 1.6
333.15 K, 20898 kPa, Liquid, Vibrating tube method	1157 ± 1.6
333.15 K, 21900 kPa, Liquid, Vibrating tube method	1161 ± 1.6
333.15 K, 22913 kPa, Liquid, Vibrating tube method	1165 ± 1.6
333.15 K, 23923 kPa, Liquid, Vibrating tube method	1168.8 ± 1.6
333.15 K, 24932 kPa, Liquid, Vibrating tube method	1172.5 ± 1.6
333.15 K, 25940 kPa, Liquid, Vibrating tube method	1176.1 ± 1.6
333.15 K, 26944 kPa, Liquid, Vibrating tube method	1179.7 ± 1.6
333.15 K, 27958 kPa, Liquid, Vibrating tube method	1183 ± 1.7
333.15 K, 28967 kPa, Liquid, Vibrating tube method	1186.4 ± 1.7
333.15 K, 29982 kPa, Liquid, Vibrating tube method	1189.8 ± 1.7
333.15 K, 30988 kPa, Liquid, Vibrating tube method	1193 ± 1.7
333.15 K, 31995 kPa, Liquid, Vibrating tube method	1196.1 ± 1.7
333.15 K, 33006 kPa, Liquid, Vibrating tube method	1199.3 ± 1.7
333.15 K, 34013 kPa, Liquid, Vibrating tube method	1202.3 ± 1.7
333.16 K, 1380 kPa, Liquid, Vibrating tube method	1031.7 ± 1.7
333.16 K, 1683 kPa, Liquid, Vibrating tube method	1035.2 ± 1.7
333.16 K, 2698 kPa, Liquid, Vibrating tube method	1046.3 ± 1.7
333.16 K, 3721 kPa, Liquid, Vibrating tube method	1056.4 ± 1.7
333.16 K, 4755 kPa, Liquid, Vibrating tube method	1065.6 ± 1.6
333.16 K, 5766 kPa, Liquid, Vibrating tube method	1073.9 ± 1.6
333.16 K, 6767 kPa, Liquid, Vibrating tube method	1081.5 ± 1.6
333.16 K, 7784 kPa, Liquid, Vibrating tube method	1088.8 ± 1.6
333.16 K, 8801 kPa, Liquid, Vibrating tube method	1095.7 ± 1.6
333.16 K, 9801 kPa, Liquid, Vibrating tube method	1102 ± 1.6
333.16 K, 11831 kPa, Liquid, Vibrating tube method	1114 ± 1.6
333.16 K, 12847 kPa, Liquid, Vibrating tube method	1119.5 ± 1.6
333.16 K, 13849 kPa, Liquid, Vibrating tube method	1124.8 ± 1.6
333.16 K, 14855 kPa, Liquid, Vibrating tube method	1129.9 ± 1.6
333.16 K, 16870 kPa, Liquid, Vibrating tube method	1139.6 ± 1.6
343.03 K, 81.6 kPa, Gas, isochoric method	3.3 ± 0.084
343.03 K, 297.5 kPa, Gas, isochoric method	12.346 ± 0.091
343.04 K, 81.7 kPa, Gas, isochoric method	3.3 ± 0.084
343.04 K, 186.1 kPa, Gas, isochoric method	7.634 ± 0.085
343.04 K, 505.6 kPa, Gas, isochoric method	21.739 ± 0.093
343.04 K, 648.5 kPa, Gas, isochoric method	28.571 ± 0.1
343.05 K, 443.5 kPa, Gas, isochoric method	19.231 ± 0.092
343.06 K, 713 kPa, Gas, isochoric method	32.258 ± 0.11
343.06 K, 713.1 kPa, Gas, isochoric method	32.258 ± 0.11
343.06 K, 913.4 kPa, Gas, isochoric method	43.478 ± 0.13
343.06 K, 913.5 kPa, Gas, isochoric method	43.478 ± 0.13
343.15 K, 834.9 kPa, Gas, isochoric method	38.462 ± 0.11
343.15 K, 835 kPa, Gas, isochoric method	38.462 ± 0.11
343.15 K, 1625 kPa, Liquid, Vibrating tube method	984.2 ± 1.7
343.15 K, 2607 kPa, Liquid, Vibrating tube method	999.1 ± 1.7
343.15 K, 3648 kPa, Liquid, Vibrating tube method	1012.8 ± 1.7
343.15 K, 4690 kPa, Liquid, Vibrating tube method	1024.7 ± 1.7
343.15 K, 5696 kPa, Liquid, Vibrating tube method	1035.1 ± 1.7
343.15 K, 6697 kPa, Liquid, Vibrating tube method	1044.5 ± 1.6
343.15 K, 7717 kPa, Liquid, Vibrating tube method	1053.2 ± 1.6
343.15 K, 8731 kPa, Liquid, Vibrating tube method	1061.4 ± 1.6
